Test system: norovirus
Assay: Anti-norovirus characteristics test (viral genome RNA by real-time PCR)
Settings: comparative test results of Example 1
Experimental: A frozen stock solution of a norovirus isolated from stools of a patient and cryopreserved at −80° C. was thawed on ice. A hundred microliters of the norovirus stock solution was diluted ten times with phosphate-buffered saline (PBS) and was spun in a refrigerated centrifuge at 10,000 rpm for 20 minutes to remove a precipitate. The resulting “norovirus test solution” (950 μL solution) was used in the following examples.
The “real-time PCR” in the following examples was performed in accordance with a document “Detection Method for Norovirus” attached to a notice (Notice No. 1105001 from the Inspection and Safety Division, dated Nov. 5, 2003. See http://www.mhlw.go.jp/topics/syokuchu/kanren/kanshi/031105-1.html) issued by the Director of the Inspection and Safety Division, Department of Food Safety, Pharmaceutical and Food Safety Bureau, Ministry of Health, Labour and Welfare.
The real-time PCR counts the number of viral genomes in the states of […] in FIG. 1. In the following examples, only elimination of (the RNA of) a norovirus illustrated in (c) is rated as “efficacious”, and the survival of (the RNA of) a norovirus illustrated in (b) is rated as “inefficacious” even if the infectivity and proliferative capacity of the norovirus are lost. Nevertheless, an anti-norovirus composition according to the present invention is rated as more efficacious than conventional compositions. Taking the state of a norovirus illustrated in (b) into account, an anti-norovirus composition according to the present invention should therefore have still higher practical efficacy.
Twenty-five microliters of the norovirus test solution and 25 μL of each of the compositions (A1 to A5 or B1 to B7) were sufficiently mixed. […] After the diluted solution was subjected to treatments, such as RNA extraction and cDNA synthesis, viral genome RNAs remaining in the diluted solution was counted by real-time PCR. […] These measured values for the sample solutions and the corresponding controls were compared to determine the inhibition rates of the compositions for the norovirus.

Row | Compound | efficacy for a norovirus (in words)
1 | O=C(O)c1cc(O)c(O)c(O)c1 [gallic acid] | no efficacy
2 | CCCOC(=O)c1cc(O)c(O)c(O)c1 [propyl gallate, gallic acid propyl ester] | no efficacy
3 | catechin | no efficacy

Reference: patent US8790718B2, “Method of disinfection or infection control against norovirus” (Hiroshima University, priority 2007, dated 2014)
